pEC50: −log10 of the molar value.

One test deals with T1, hPPARβ chimeric receptor (Homo sapiens, UniProt Q03181).
T1 construct: "expression plasmids encoding hPPARα, hPPARβ or mPPARγ chimeric receptors"
T1 sequence (Q03181 171-441 limits assumed): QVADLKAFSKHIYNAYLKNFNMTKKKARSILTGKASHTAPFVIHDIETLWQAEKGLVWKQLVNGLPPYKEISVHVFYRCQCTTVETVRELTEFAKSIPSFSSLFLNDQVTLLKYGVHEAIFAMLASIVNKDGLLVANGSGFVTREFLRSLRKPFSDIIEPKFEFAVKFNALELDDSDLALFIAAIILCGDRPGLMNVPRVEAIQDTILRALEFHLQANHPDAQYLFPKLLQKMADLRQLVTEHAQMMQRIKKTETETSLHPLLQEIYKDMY
Put plainly: Transient transfection assay in HepG2 cells, Gal4-hPPARβ chimeric receptor, luciferase reporter (Test A). It counts as cell-based. The following applies: for EC50-β (Hep G2-hBeta EC50): HepG2 cells, hPPARβ chimeric receptor, luciferase reporter, 24 hours. On the procedure:
(§1) 1. Test A. Transient Transfections Assay Using the HepG2 Hepatoma Cell Line.
(§2) HepG2 cells were transiently transfected with an expression plasmids encoding hPPARα, hPPARβ or mPPARγ chimeric receptors and a reporter containing the yeast upstream activating sequence (UAS) upstream of the viral E1B promoter controlling a luciferase reporter gene. In addition, the plasmid pRSVβ-gal was used to control for transfection efficiency. HepG2 cells were grown in DMEM supplemented with 10% FBS and […] non-essential amino acid. On the first day, cells were split into 100 mm dishes at 2.5×10^6/dish and incubated overnight at 37° C./5% CO2. On the second day the cells were transiently transfected with plasmid DNA encoding a chimeric receptor, the luciferase reporter gene; and β-gal. For each 100 mm dish, 15 μg of lucifease reporter (PG5E1b) DNA, 15 μg of Gal4-PPAR chimeric receptor DNA, and 1.5 μg of β-gal plasmid DNA were mixed with 1.4 ml of opti-MEM in the tube. 28 μl of LipoFectamine-2000 reagent was added to 1.4 ml of opti-MEM in the tube, and incubate for 5 min at RT. The diluted Lipofectamine-2000 reagent was combined with the DNA mixture, and incubate for 20 min at RT. After fresh medium was added to each 100 mm dish of cells, 2.8 ml of Lipofectamine2000-DNA mixture was added dropwise to the 100 mm dish containing 14 ml of medium, and incubate 37° C. overnight. On day three cells were trypsinized off the 100 mm dishes and re-plated on 96 well plates. Cells were plated at 2.5×10^4 cells per well in 150 μl of media and 50 μl of compound diluted by media was added. The test compounds added were in the range from 50 μM to 50 pM. After addition of compounds, the plates were incubated at 37° C. for 24 hours. Subsequently cells were washed with once with 100 μl of PBS, lysed, and processed for measuring luciferase and β-gal activity using Dual-Light luciferase kit from Tropix®, according to the manufacturer's recommendations, on an EG&G Bethold MicroLumat LB96P luminometer. EC50 values were obtained using the GraphPad Prism™ program.
On the technique in general: A reporter such as luciferase makes a cellular process visible.

In the next test the target is T2, hPPARα chimeric receptor (Homo sapiens, UniProt Q07869).
T2 construct: "expression plasmids encoding hPPARα, hPPARβ or mPPARγ chimeric receptors"
T2 sequence (Q07869 200-468 limits assumed): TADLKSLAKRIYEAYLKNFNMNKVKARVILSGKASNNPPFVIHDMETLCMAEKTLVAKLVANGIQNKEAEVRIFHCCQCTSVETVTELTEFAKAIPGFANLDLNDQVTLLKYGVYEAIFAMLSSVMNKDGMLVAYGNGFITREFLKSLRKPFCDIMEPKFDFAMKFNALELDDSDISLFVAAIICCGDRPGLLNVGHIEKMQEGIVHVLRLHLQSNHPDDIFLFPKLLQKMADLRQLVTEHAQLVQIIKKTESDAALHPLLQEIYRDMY
Put plainly: Transient transfection assay in HepG2 cells, Gal4-hPPARα chimeric receptor, luciferase reporter (Test A). The test is classed as cell-based. The following applies: HepG2 cells, hPPARα chimeric receptor, luciferase reporter, 24 hours; read-out: EC50-α (Hep G2-hAlpha EC50). On the procedure: as §1
as §2, with “program. […] Accordingly, the compounds of the present invention should find considerable therapeutic applications for hypercholesterolemia and hyperlipidemia.” for “program.”

One may read the pEC50 as −log10 of the EC50, conventionally taken in molar units. Consider `Cc1nc(-c2ccc(C(F)(F)F)cc2)sc1CSc1ccc(OCCC(=O)O)cc1` [Example 16, 3-{4-[4-Methyl-2-(4-trifluoromethyl-phenyl)-thiazol-5-ylmethylsulfanyl]-phenoxy}-propionic acid], for which the figures for the pEC50 on hPPARβ chimeric receptor and at hPPARα chimeric receptor were 5.71 and 5.91, respectively.
For `COc1cc(C(C)(C)C(=O)O)ccc1SCc1sc(-c2ccc(C(F)(F)F)cc2)nc1C` [Example 17, 2-{3-Methoxy-4-[4-methyl-2-(4-trifluoromethyl-phenyl)-thiazol-5-ylmethylsulfanyl]-phenyl}-2-methyl-propionic acid], in that order: 7.70 and 8.26.
For the compound `Cc1cc(SCc2sc(-c3ccc(C(F)(F)F)cc3)nc2C)c(C(C)C)cc1OCC(=O)O` [Example 3, {5-Isopropyl-2-methyl-4-[4-methyl-2-(4-trifluoromethyl-phenyl)-thiazol-5-ylmethylsulfanyl]-phenoxy}-acetic acid], the pEC50 is 5.89 at hPPARβ chimeric receptor and 6.27 on hPPARα chimeric receptor.
For `Cc1nc(-c2ccc(C(F)(F)F)cc2)sc1CSc1ccc([C@@H]2CC2C(=O)O)cc1` (stereo in doubt) [Example 12, 2-{4-[4-Methyl-2-(4-trifluoromethyl-phenyl)-thiazol-5-ylmethylsulfanyl]-phenyl}-cyclopropanecarboxylic acid], in that order: 6.52 and 6.87.
For the compound `CCc1cc(OCC(=O)O)c(C)cc1SCc1sc(-c2ccc(C(F)(F)F)cc2)nc1C` [Example 2, {5-Ethyl-2-methyl-4-[4-methyl-2-(4-trifluoromethyl-phenyl)-thiazol-5-ylmethylsulfanyl]-phenoxy}-acetic acid], the results for the pEC50 at hPPARβ chimeric receptor and at hPPARα chimeric receptor were 6.44 and 5.91, respectively.
For the compound `Cc1cc(OCC(=O)O)cc(C)c1SCc1sc(-c2ccc(C(F)(F)F)cc2)nc1C` [Example 7, {3,5-Dimethyl-4-[4-methyl-2-(4-trifluoromethyl-phenyl)-thiazol-5-ylmethylsulfanyl]-phenoxy}-acetic acid], the pEC50 is 6.33 on hPPARβ chimeric receptor and 5.87 at hPPARα chimeric receptor.
The like results for `Cc1cc(OCC(=O)O)c(C(C)C)cc1SCc1sc(-c2ccc(C(F)(F)F)cc2)nc1C` [Example 9, {2-Isopropyl-5-methyl-4-[4-methyl-2-(4-trifluoromethyl-phenyl)-thiazol-5-ylmethylsulfanyl]-phenoxy}-acetic acid] were, in that order, 6.05 and 5.24.
For `COc1cc(SCc2sc(-c3ccc(C(F)(F)F)cc3)nc2C)c(OC)cc1CCC(=O)O` [Example 20, 3-{2,5-Dimethoxy-4-[4-methyl-2-(4-trifluoromethyl-phenyl)-thiazol-5-ylmethylsulfanyl]-phenyl}-propionic acid], in that order: 7.46 and 6.84.
The like results for `COc1cc(OC)c(SCc2sc(-c3ccc(C(F)(F)F)cc3)nc2C)cc1CC(=O)O` [Example 21, {2,4-Dimethoxy-5-[4-methyl-2-(4-trifluoromethyl-phenyl)-thiazol-5-ylmethylsulfanyl]}-acetic acid] were, in that order, 5.90 and 6.35.
With `CC(=O)Nc1cc(OCC(=O)O)c(C)cc1SCc1sc(-c2ccc(C(F)(F)F)cc2)nc1C` [Example 25, 2-[5-(acetylamino)-2-methyl-4-({4-methyl-2-[4-(trifluoromethyl)phenyl](1,3-thiazol-5-yl)}methylthio)phenoxy]acetic acid], the “EC50-β (Hep G2-hBeta EC50)” value on hPPARβ chimeric receptor turned out to be 2000 µM.
`COc1cc(OCC(=O)O)c(C)cc1SCc1sc(-c2ccc(C(F)(F)F)cc2)nc1C` [Example 5, {5-Methoxy-2-methyl-4-[4-methyl-2-(4-trifluoromethyl-phenyl)-thiazol-5-ylmethylsulfanyl]-phenoxy}-acetic acid]: the pEC50 was 8.64 on hPPARβ chimeric receptor and 6.92 on hPPARα chimeric receptor.
With `Cc1cc(SCc2sc(-c3ccc(C(F)(F)F)cc3)nc2C)c(F)cc1OCC(=O)O` [Example 26, 2-[5-fluoro-2-methyl-4-({4-methyl-2-[4-(trifluoromethyl)phenyl](1,3-thiazol-5-yl)}methylthio)phenoxy]acetic acid], the pEC50 on hPPARβ chimeric receptor was 10.15; at hPPARα chimeric receptor it was 6.77.
The like results for `Cc1cc(SCc2sc(-c3ccc(C(F)(F)F)cc3)nc2C)cc(C)c1OCC(=O)O` [Example 4, {2,6-Dimethyl-4-[4-methyl-2-(4-trifluoromethyl-phenyl)-thiazol-5-ylmethylsulfanyl]-phenoxy}-acetic acid] were, in that order, 7.63 and 6.79.
For `Cc1nc(-c2ccc(C(F)(F)F)cc2)sc1CSc1ccc(C2(C(=O)O)CCCC2)cc1` [Example 14, 1-{4-[4-Methyl-2-(4-trifluoromethyl-phenyl)-thiazol-5-ylmethylsulfanyl]-phenyl}-cyclopentanecarboxylic acid], in that order: 5.17 and 6.00.
In the case of `Cc1nc(-c2ccc(C(F)(F)F)cc2)sc1CSc1ccc(C(C)(C)CC(=O)O)cc1` [Example 18, 3-Methyl-3-{4-[4-methyl-2-(4-trifluoromethyl-phenyl)-thiazol-5-ylmethylsulfanyl]-phenyl}-butyric acid], the pEC50 at hPPARβ chimeric receptor was 6.10.
As to `Cc1nc(-c2ccc(C(F)(F)F)cc2)sc1CSc1ccc(C(C)(C)C(=O)O)cc1` [Example 11, 2-Methyl-2-{4-[4-methyl-2-(4-trifluoromethyl-phenyl)-thiazol-5-ylmethylsulfanyl]-phenyl}-propionic acid], the pEC50 on hPPARβ chimeric receptor was 7.31; on hPPARα chimeric receptor, 6.29.
Consider `Cc1nc(-c2ccc(C(F)(F)F)cc2)sc1CSc1ccc(C2CCC(CC(=O)O)CC2)cc1` (stereo not shown) [Example 33, (4-{4-[4-Methyl-2-(4-trifluoromethyl-phenyl)-thiazol-5-ylmethylsulfanyl]-phenyl}-cyclohexyl)-acetic acid], for which, on hPPARβ chimeric receptor, the “EC50-β (Hep G2-hBeta EC50)” value was 2000 µM.
As for `Cc1cc(SCc2sc(-c3ccc(C(F)(F)F)cc3)nc2C)c(Cl)cc1OCC(=O)O` [Example 31, {5-Chloro-2-methyl-4-[4-methyl-2-(4-trifluoromethyl-phenyl)-thiazol-5-ylmethylsulfanyl]-phenoxy}-acetic acid], the figures for the pEC50 at hPPARβ chimeric receptor and on hPPARα chimeric receptor were 6.98 and 5.69, respectively.
As for `COc1cc(CN2CCCC2C(=O)O)ccc1SCc1sc(-c2ccc(C(F)(F)F)cc2)nc1C` (stereo not shown) [Example 29], at hPPARβ chimeric receptor, the “EC50-β (Hep G2-hBeta EC50)” value was found to be 2000 µM.

The record behind these values is patent US20030207924A1, “Compounds that modulate PPAR activity and methods of preparation” (priority 2002, published 2003).
